What is called IC50 is the concentration needed to halve the response being measured. A higher IC50 goes with weaker potency.

Sequence of USP14 (P54578 whole entry, looked up): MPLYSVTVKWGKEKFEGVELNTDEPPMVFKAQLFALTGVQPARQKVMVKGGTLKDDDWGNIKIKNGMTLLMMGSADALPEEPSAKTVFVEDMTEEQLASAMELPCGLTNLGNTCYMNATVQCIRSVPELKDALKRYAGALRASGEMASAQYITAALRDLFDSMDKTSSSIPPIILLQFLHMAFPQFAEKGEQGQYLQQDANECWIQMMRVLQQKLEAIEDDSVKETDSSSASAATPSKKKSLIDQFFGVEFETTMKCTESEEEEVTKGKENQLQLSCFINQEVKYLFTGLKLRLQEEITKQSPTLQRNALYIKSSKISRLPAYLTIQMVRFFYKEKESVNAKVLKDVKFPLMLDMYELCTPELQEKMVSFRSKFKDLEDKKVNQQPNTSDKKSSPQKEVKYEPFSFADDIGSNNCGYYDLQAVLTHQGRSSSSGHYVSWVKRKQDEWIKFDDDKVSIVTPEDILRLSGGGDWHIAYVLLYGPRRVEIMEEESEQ

The experiment deals with USP14 (Homo sapiens (Human), UniProt P54578). In words: Usp14 inhibition assay (Example 57B, B-series compounds). Conditions: IC50 class; average value from a minimum of two experimental determinations. It counts as biochemical. The source says:
Example 57B: Usp14 Inhibition Assay
The IC50 values in the Table below represent the average value from a minimum of two experimental determinations.
Take `Cc1c(C(=O)CN2[C@@H]3CC[C@H]2[C@@H](O)C3)cc(CCCC2CCOCC2)n1-c1ccc(C#N)cc1` (racemic) [Example 2B, (±)-4-(3-(2-((1S,2S,4R)-2-Hydroxy-7-azabicyclo[2.2.1]heptan-7-yl)acetyl)-2-methyl-5-(3-(tetrahydro-2H-pyran-4-yl)propyl)-1H-pyrrol-1-yl)benzonitrile]: the IC50 was less than 50 nM.
`Cc1c(C(=O)CN2C3CCC2[C@@H](O)C3)cc(C[C@H]2C[C@@H](C#N)C2)n1-c1ccc(C#N)cc1` (mixture of isomers) [Example 4B, (±)-4-(5-4(1s,3S)-3-cyanocyclobutyl)methyl)-3-(2-((1R,2R,4S)-2-hydroxy-7-azabicyclo[2.2.1]heptan-7-yl)acetyl)-2-methyl-1H-pyrrol-1-yl)benzonitrile] showed an IC50 of less than 50 nM.
Take `Cc1c(C(=O)CN2C3CCC2[C@@H](O)C3)cc(COCCC#N)n1-c1ccc(C#N)cc1` (mixture of isomers) [Example 5B, (±)-4-(5-((2-Cyanoethoxy)methyl)-3-(2-((2R)-2-hydroxy-7-azabicyclo[2.2.1]heptan-7-yl)acetyl)-2-methyl-1H-pyrrol-1-yl)benzonitrile]: the IC50 is more than 500 nM.
Under `Cc1nccn1C/C=C/c1cc(C(=O)CN2C3CCC2[C@@H](O)C3)c(C)n1-c1ccc(C#N)cc1` (mixture of isomers) [Example 6B, (±)-4-(3-(2-((2R)-2-Hydroxy-7-azabicyclo[2.2.1]heptan-7-yl)acetyl)-2-methyl-5-((E)-3-(2-methyl-1H-imidazol-1-yl)prop-1-en-1-yl)-1H-pyrrol-1-yl)benzonitrile] stands less than 50 nM.
Next, `Cc1c(C(=O)CN2C3CCC2[C@@H](O)C3)cc(CCCCS(C)(=O)=O)n1-c1ccc(C#N)cc1` (mixture of isomers) [Example 8B, (±)-4-(3-(2-((1R,2R,4S)-2-Hydroxy-7-azabicyclo[2.2.1]heptan-7-yl)acetyl-2-methyl-5-(4-(methylsulfonyl)butyl)-1H-pyrrol-1-yl)benzonitrile]: less than 50 nM; `Cc1c(C(=O)CN2C3CCC2[C@@H](O)C3)cc(CCC2CCOCC2)n1-c1ccc(C#N)cc1` (mixture of isomers) [Example 9B, (±)-4-(3-(2-((2R)-2-Hydroxy-7-azabicyclo[2.2.1]heptan-7-yl)acetyl)-2-methyl-5-(2-(tetrahydro-2H-pyran-4-yl)ethyl)-1H-pyrrol-1-yl)benzonitrile]: less than 50 nM.
With `Cc1c(C(=O)CN2C3CCC2[C@@H](O)C3)cc(C#CCCC#N)n1-c1ccc(C#N)cc1` (mixture of isomers) [Example 10B, (±)-4-(5-(4-Cyanobut-1-yn-1-yl)-3-(2-((2R)-2-hydroxy-7-azabicyclo[2.2.1]heptan-7-yl)acetyl)-2-methyl-1H-pyrrol-1-yl)benzonitrile], the half-maximal inhibitory concentration (IC50) was less than 50 nM.
Next, `Cc1c(C(=O)CN2C3CCC2[C@H](O)C3)cc(C(C)CCS(C)(=O)=O)n1-c1ccc(C#N)cc1` (mixture of isomers) [Example 11B, (±)-4-(3-(2-((2R)-2-Hydroxy-7-azabicyclo[2.2.1]heptan-7-yl)acetyl)-2-methyl-5-(4-(methylsulfonyl)butan-2-yl)-1H-pyrrol-1-yl)benzonitrile]: more than 500 nM; `Cc1c(C(=O)CN2[C@@H]3CC[C@H]2[C@@H](O)C3)cc(CCCCC2CCOCC2)n1-c1ccc(C#N)cc1` (racemic) [Example 14B, (±)-4-(3-(2-((1S,2S,4R)-2-Hydroxy-7-azabicyclo[2.2.1]heptan-7-yl)acetyl)-2-methyl-5-(4-(tetrahydro-2H-pyran-4-yl)butyl)-1H-pyrrol-1-yl)benzonitrile]: less than 50 nM.
With `Cc1c(C(=O)CN2[C@@H]3CC[C@H]2[C@@H](O)C3)cc(/C=C/CC(C)(C)C#N)n1-c1ccc(C#N)cc1` (racemic) [Example 15B, (±)-4-(5-((E)-4-Cyano-4-methylpent-1-en-1-yl)-3-(2-((1R,2R,4S)-2-hydroxy-7-azabicyclo[2.2.1]heptan-7-yl)acetyl)-2-methyl-1H-pyrrol-1-yl)benzonitrile], the half-inhibitory concentration (IC50) is less than 50 nM.
As for `Cc1c(C(=O)CN2C3CCC2C(O)C3)cc([C@@H]2C[C@H]2CCC#N)n1-c1ccc(C#N)cc1` (mixture of isomers) [Example 17B, (±)-4-(5-((1R,2R)-2-(2-Cyanoethyl)cyclopropyl)-3-(2-((2R)-2-hydroxy-7-azabicyclo[2.2.1]heptan-7-yl)acetyl)-2-methyl-1H-pyrrol-1-yl)benzonitrile], the IC50 was 50 to 500 nM.
As to `Cc1c(CCCCS(C)(=O)=O)c(C(=O)CN2C3CCC2[C@@H](O)C3)c(C)n1-c1ccc(C#N)cc1` (mixture of isomers) [Example 19B, (±)-4-(3-(2-((2R)-2-Hydroxy-7-azabicyclo[2.2.1]heptan-7-yl)acetyl)-2,5-dimethyl-4-(4-(methylsulfonyl)butyl)-1H-pyrrol-1-yl)benzonitrile], the IC50 is more than 500 nM.
`Cc1c(C(=O)CN2C3CCC2[C@@H](O)C3)cc(/C=C/CCC#N)n1-c1ccc(C#N)cc1` (mixture of isomers) [Example 20B, (±)-4-(5-((E)-4-Cyanobut-1-en-1-yl)-3-(2-((2R)-2-hydroxy-7-azabicyclo[2.2.1]heptan-7-yl)acetyl)-2-methyl-1H-pyrrol-1-yl)benzonitrile] returned an IC50 of less than 50 nM.
In turn, `Cc1c(C(=O)CN2[C@@H]3CC[C@H]2[C@@H](O)C3)cc(CCCC2COC2)n1-c1ccc(C#N)cc1` (racemic) [Example 22B, (±)-4-(3-(2-((1R,2R,4S)-2-Hydroxy-7-azabicyclo[2.2.1]heptan-7-yl)acetyl)-2-methyl-5-(3-(oxetan-3-yl)propyl)-1H-pyrrol-1-yl)benzonitrile] yielded a concentration for half-maximal inhibition (IC50) of less than 50 nM.
Molecule `Cc1c(C(=O)CN2[C@@H]3CC[C@H]2[C@@H](O)C3)cc(CCCCC2COC2)n1-c1ccc(C#N)cc1` (racemic) [Example 23B, (±)-4-(3-(2-((1S,2S,4R)-2-Hydroxy-7-azabicyclo[2.2.1]heptan-7-yl)acetyl)-2-methyl-5-(4-(oxetan-3-yl)butyl)-1H-pyrrol-1-yl)benzonitrile] had an IC50 of less than 50 nM.
`Cc1c(C(=O)CN2C3CCC2[C@@H](O)C3)cc(CCCn2cccn2)n1-c1ccc(C#N)cc1` (mixture of isomers) [Example 24B, (±)-4-(5-(3-(1H-Pyrazol-1-yl)propyl)-3-(2-((2R)-2-hydroxy-7-azabicyclo[2.2.1]heptan-7-yl)acetyl)-2-methyl-1H-pyrrol-1-yl)benzonitrile]: the IC50 lay in the range of 50 to 500 nM.
Molecule `Cc1c(C(=O)CN2[C@@H]3CC[C@H]2[C@@H](O)C3)cc(/C=C/Cn2cccn2)n1-c1ccc(C#N)cc1` (racemic) [Example 27B, (±)-4-(5-((E)-3-(1H-Pyrazol-1-yl)prop-1-en-1-yl)-3-(2-((1S,2S,4R)-2-hydroxy-7-azabicyclo[2.2.1]heptan-7-yl)acetyl)-2-methyl-1H-pyrrol-1-yl)benzonitrile] had an IC50 of less than 50 nM.
Next, `Cc1c(C(=O)CN2[C@@H]3CC[C@H]2[C@@H](O)C3)cc(CCCCC#N)n1-c1ccc(Cl)cc1` (racemic) [Example 29B, (±)-5-(1-(4-Chlorophenyl)-4-(2-((1R,2R,4S)-2-hydroxy-7-azabicyclo[2.2.1]heptan-7-yl)acetyl)-5-methyl-1H-pyrrol-2-yl)pentanenitrile]: less than 50 nM; `Cc1c(C#N)c(C(=O)CN2C3CCC2[C@@H](O)C3)c(C)n1-c1ccc(C#N)cc1` (mixture of isomers) [Example 33B, (±)-1-(4-Cyanophenyl)-4-(2-((2R)-2-hydroxy-7-azabicyclo[2.2.1]heptan-7-yl)acetyl)-2,5-dimethyl-1H-pyrrole-3-carbonitrile]: more than 500 nM.

The record behind these values is patent publication US11560385B2, “Proteasome activity enhancing compounds” (Proteostasis Therapeutics, Inc., priority 2018, dated 2023).
